Data on 7 compounds can be found in patent publication EP4212633A1 (priority 2022, dated 2023).

The structures appear in SMILES notation.

One data set has as its target SARS-CoV-2 pseudoknot. Description: ligand observed fluorescence titrations (binding to the pseudoknot). The settings on record: for Kd: binding to the pseudoknot structure, Figure 3.
The subject of data set [1] is pseudoknot RNA. In words: inline probing experiments. Format: binding, SARS-CoV-2.
Data set [2] relates to pseudoknot RNA. Description: 1H,15N-HSQC NMR experiments (chemical shift perturbation, binding site mapping). Also on record: species or system SARS-CoV-2.
The next data set concerns SARS-CoV-2. As to conditions: Wang et al., 2020, Zhang et al.; cited from earlier work.
For data set [3] the following is noted: at higher concentrations; Borba et al., 2020; cited from earlier work.
The next data set concerns COVID-19. The settings on record: Cao et al., 2020; cited from earlier work.

Compound `COc1ccc(-c2cc(-c3ccncc3)nc(N3C[C@H](N)C[C@H](N)C3)n2)cc1` [D01+DAP, (3R,5S)-1-(4-(4-methoxyphenyl)-6-(pyridin-4-yl)pyrimidin-2-yl)piperidine-3,5-diamine] gave a Kd at SARS-CoV-2 pseudoknot of 0.3 µM. Also, in the data set on SARS-CoV-2 pseudoknot (ligand observed fluorescence titrations, Figures 3 and 14), the “binding affinity to the SARS-CoV-2 pseudoknot (ranking among evaluated derivatives)” value was “highest binding affinity”. The “interaction in inline probing” value in the data set on pseudoknot RNA [1] (Figure 4B) was “interaction of D01+DAP and the pseudoknot RNA in the predicted HS1 and the loop region (L2)”. For the same compound, the “binding site from chemical shift perturbation and decreasing signal intensity” value with pseudoknot RNA [2] (addition of ligand to pseudoknot RNA, Figure 4A) is on record as “confirmed one of the binding hot spots (HS2) as a binding site”.

On SARS-CoV-2 pseudoknot, `Cc1ccc(C)n1CCC(=O)Nc1ccc2nc[nH]c(=O)c2c1` [D05, 3-(2,5-dimethyl-1H-pyrrol-1-yl)-N-(4-oxo-3,4-dihydroquinazolin-6-yl)propanamide] had a Kd of 140 µM. In addition, in the data set on pseudoknot RNA [1], the “interactions with the RNA in in-line probing experiments” value is listed as “showed interactions with the RNA”. The “interactions with the RNA in NMR experiments” value in the data set on pseudoknot RNA [2] was “showed interactions with the RNA”.

In the case of `NC(=O)c1ncn([C@@H]2O[C@H](CO)[C@@H](O)[C@H]2O)n1` [Ribavirin], the antiviral activity result in the data set on SARS-CoV-2 was “two- or three-digit micromolar range”.

Regarding `CCN(CC)CCCC(C)Nc1ccnc2cc(Cl)ccc12` (stereo not drawn) [chloroquine], the side-effects entry in data set [3] is “heart arrhythmia”.

For `NC(=O)c1nc(F)cnc1O` [favipavir], the antiviral activity result in the data set on SARS-CoV-2 is given as “two- or three-digit micromolar range”.

Take `Cc1cccc(C)c1OCC(=O)N[C@@H](Cc1ccccc1)[C@@H](O)C[C@H](Cc1ccccc1)NC(=O)[C@H](C(C)C)N1CCCNC1=O` [lopinavir]: in the data set with COVID-19, the “effect in clinical tests” value was “no effect”.

Turning to `CC(C)(C)OC(=O)Nc1cccn([C@@H](CC2CC2)C(=O)N[C@@H](C[C@@H]2CCNC2=O)C(=O)C(=O)NCc2ccccc2)c1=O` [α-ketoamide-Inhibitor 13b], the antiviral activity entry with SARS-CoV-2 is recorded as “low micromolar range”.

Broadly, the Kd is the equilibrium constant for the complex coming apart. A high value points to lower affinity.
